{"source": "paper PMC4177882", "about": "“Inactivation and Unfolding of Protein Tyrosine Phosphatase from Thermus thermophilus HB27 during Urea and Guanidine Hydrochloride Denaturation” (PLoS ONE, 2014)", "target": "T1, protein tyrosine phosphatase (PTPase) from Thermus thermophilus HB27 (Thermus thermophilus, UniProt Q72JF6)", "T1 construct": "gene TT_C0816; recombinant, expressed in E. coli BL21(DE3), purified to homogeneity; low molecular weight PTPase, CX5R(S/T) P-loop with Cys11; monomer in solution", "T1 sequence (Q72JF6 entry or part of it)": "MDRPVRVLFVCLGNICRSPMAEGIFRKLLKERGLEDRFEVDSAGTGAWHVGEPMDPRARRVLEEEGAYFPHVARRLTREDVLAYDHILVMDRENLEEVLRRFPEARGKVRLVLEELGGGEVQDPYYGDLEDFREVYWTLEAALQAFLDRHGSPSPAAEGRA", "test": "phosphatase activity, absorbance at […] nm", "format": "biochemical", "note": "Structures can show the parent of a compound that is named as a salt."}
{"smiles": "N=C(N)N", "note": "[guanidine hydrochloride]", "values": [{"measurement": "Ki", "result": 270, "unit": "µM"}]}
